Results published in patent publication US10131652B2, “Pyrimidinyloxy benzene derivatives as herbicides” (E. I. DU PONT DE NEMOURS AND COMPANY, priority 2014, dated 2018).
Read-outs that look alike come from different tables or passages of the source.

Key:
Assay type in all cases: in vivo
[1] = system: chickweed (common chickweed, Stellaria media); assay: Test D postemergence plant response; conditions: for pest or weed control at 31 g/ha: 31 g ai/ha; for pest or weed control at 62 g/ha: 62 g ai/ha; for pest or weed control at 62 g/ha / pest or weed control at 125 g/ha: scale 0 to 100, 0 no effect, 100 complete control, read-out: Plant response rating, Chickweed; for pest or weed control at 125 g/ha: 125 g ai/ha
Text: (§1) At the same time, plants selected from these crop and weed species and also kochia (Kochia scoparia), wild oat (Avena fatua), and chickweed (common chickweed, Stellaria media) were planted in pots containing Redi-Earth® planting medium (Scotts Company, 14111 Scottslawn Road, Marysville, Ohio 43041) comprising spaghnum peat moss, vermiculite, wetting agent and starter nutrients and treated with postemergence applications of test chemicals formulated in the same manner. Plants ranged in height from 2 to 18 cm (1- to 4-leaf stage) for postemergence treatments. Treated plants and controls were maintained in a greenhouse for 13 to 15 days, after which time all species were compared to controls and visually evaluated. Plant response ratings, summarized in Table D, are based on a scale of 0 to 100 where 0 is no effect and 100 is complete control. A dash (-) response means no test result.

kochia (Kochia scoparia) = assay: Test D postemergence plant response; conditions: for pest or weed control at 31 g/ha: 31 g ai/ha; for pest or weed control at 62 g/ha: 62 g ai/ha; for pest or weed control at 62 g/ha / pest or weed control at 125 g/ha: scale 0 to 100, 0 no effect, 100 complete control, read-out: Plant response rating, Kochia; for pest or weed control at 125 g/ha: 125 g ai/ha
Text: as §1

wild oat (Avena fatua) = assay: Test D postemergence plant response; conditions: for pest or weed control at 31 g/ha: 31 g ai/ha; for pest or weed control at 62 g/ha: 62 g ai/ha; for pest or weed control at 62 g/ha / pest or weed control at 125 g/ha: scale 0 to 100, 0 no effect, 100 complete control; for pest or weed control at 125 g/ha: 125 g ai/ha
Text: as §1

[2] = system: ducksalad (Heteranthera limosa); assay: Test C flooded paddy test plant response; conditions: Heteranthera limosa; Flood, 250 g ai/ha; scale of 0 to 100 where 0 is no effect and 100 is complete control; 13 to 15 days; read-out: Ducksalad plant response rating
Outline: (§2)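 Visual injury ratings (0, no effect; 100, complete control) were assigned after 13 to 15 days in a greenhouse, comparing treated plants with controls. Compounds had been added straight into paddy water over 2-leaf-stage plants flooded to 3 cm.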

[3] = system: small-flower umbrella sedge (Cyperus difformis); assay: Test C flooded paddy test plant response; conditions: Cyperus difformis; Flood, 250 g ai/ha; scale of 0 to 100 where 0 is no effect and 100 is complete control; 13 to 15 days; read-out: Sedge, Umbrella plant response rating
Outline: as §2

rice (Oryza sativa) = assay: Test C flooded paddy test plant response; conditions: Oryza sativa; Flood, 250 g ai/ha; scale of 0 to 100 where 0 is no effect and 100 is complete control; 13 to 15 days; read-out: Rice plant response rating
Outline: as §2

[4] = system: barnyardgrass (Echinochloa crus-galli); assay: Test C flooded paddy test plant response; conditions: Echinochloa crus-galli; Flood, 250 g ai/ha; scale of 0 to 100 where 0 is no effect and 100 is complete control; 13 to 15 days; read-out: Barnyardgrass plant response rating
Outline: as §2

[5] = system: giant foxtail (Setaria faberii); assay: Test B pre-/postemergence plant response; conditions: for pest or weed control at 125 g/ha / pest or weed control at 500 g/ha: Setaria faberi, 240 h, read-out: Plant response rating, Foxtail, Giant; for pest or weed control at 500 g/ha: 500 g ai/ha
Outline: (§3)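 Greenhouse pots, loam/sand soil; compound formulated with surfactant in non-phytotoxic solvent. Preemergence soil spray and postemergence spray at 1–2 leaf stage run simultaneously. Visual injury, 0–100, about 10 days post-treatment.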

[6] = system: wheat (Triticum aestivum); assay: Test B pre-/postemergence plant response; conditions: for plant injury at 125 g/ha / plant injury at 500 g/ha: Triticum aestivum, 240 h, read-out: Plant response rating, Wheat; for plant injury at 500 g/ha: 500 g ai/ha
Outline: as §3

corn (Zea mays) = assay: Test B pre-/postemergence plant response; conditions: for Corn plant response rating (crop injury, 0 = no effect, 100 = complete kill) at 125 g/ha / Corn plant response rating (crop injury, 0 = no effect, 100 = complete kill) at 500 g/ha: Zea mays, 240 h; for Corn plant response rating (crop injury, 0 = no effect, 100 = complete kill) at 500 g/ha: 500 g ai/ha
Outline: as §3

[7] = system: pigweed (Amaranthus retroflexus); assay: Test B pre-/postemergence plant response; conditions: for pest or weed control at 125 g/ha / pest or weed control at 500 g/ha: Amaranthus retroflexus, 240 h, read-out: Plant response rating, Pigweed; for pest or weed control at 500 g/ha: 500 g ai/ha
Outline: as §3

[8] = system: barnyardgrass (Echinochloa crus-galli); assay: Test B pre-/postemergence plant response; conditions: for pest or weed control at 125 g/ha / pest or weed control at 500 g/ha: Echinochloa crus-galli, 240 h, read-out: Plant response rating, Barnyardgrass; for pest or weed control at 500 g/ha: 500 g ai/ha
Outline: as §3

[9] = Stellaria media, post-emergence, scale 0 to 100 (0 no effect, 100 complete control), read-out: Chickweed plant response rating
[10] = Stellaria media, post-emergence
[11] = Bassia scoparia, post-emergence, scale 0 to 100 (0 no effect, 100 complete control), read-out: Kochia plant response rating
[12] = Bassia scoparia, post-emergence
[13] = Avena fatua, post-emergence, scale 0 to 100 (0 no effect, 100 complete control), read-out: Oat, Wild plant response rating
[14] = Avena fatua, post-emergence, read-out: Plant response rating, Oat, Wild
[15] = post-emergence, 125 g ai/ha, postemergence, 0 to 100 scale, 0 no effect, 100 complete control
[16] = post-emergence, Postemergence, 0 to 100 scale (0 no effect, 100 complete control)
[17] = pre-emergence, Preemergence, 125 g ai/ha, 0 to 100 scale where 0 is no effect and 100 is complete control
[18] = pre-emergence, Preemergence, 0 to 100 scale where 0 is no effect and 100 is complete control
[19] = Preemergence, 125 g ai/ha, 0 to 100 scale (0 no effect, 100 complete control)
[20] = post-emergence, postemergence, 0 to 100 scale, 0 no effect, 100 complete control

Compound: FC(F)(F)c1cc(-c2ccccc2Oc2ncc(Cl)cn2)on1 [Compound 63, 5-chloro-2-[2-[3-(trifluoromethyl)-5-isoxazolyl]phenoxy]pyrimidine]
- pest or weed control at 16 g/ha ([1]; Stellaria media, post-emergence, 16 g ai/ha, scale 0 to 100 (0 no effect, 100 complete control), read-out: Chickweed plant response rating): 60%
- pest or weed control at 31 g/ha [1, 9]: 65%
- pest or weed control at 62 g/ha [1, 10]: 98%
- pest or weed control at 125 g/ha [1, 10]: 100%
- pest or weed control at 16 g/ha (kochia (Kochia scoparia); Bassia scoparia, post-emergence, 16 g ai/ha, scale 0 to 100 (0 no effect, 100 complete control), read-out: Kochia plant response rating): 90%
- pest or weed control at 31 g/ha (kochia (Kochia scoparia); [11]): 95%
- pest or weed control at 62 g/ha (kochia (Kochia scoparia); [12]): 98%
- pest or weed control at 125 g/ha (kochia (Kochia scoparia); [12]): 100%
- pest or weed control at 16 g/ha (wild oat (Avena fatua); Avena fatua, post-emergence, 16 g ai/ha, scale 0 to 100 (0 no effect, 100 complete control), read-out: Oat, Wild plant response rating): 0%
- pest or weed control at 31 g/ha (wild oat (Avena fatua); [13]): 20%
- pest or weed control at 62 g/ha (wild oat (Avena fatua); [14]): 25%
- pest or weed control at 125 g/ha (wild oat (Avena fatua); [14]): 35%
- pest or weed control at 250 g/ha [2]: 100%
- pest or weed control at 250 g/ha [3]: 85%
- plant injury at 250 g/ha (rice (Oryza sativa)): 25%
- pest or weed control at 250 g/ha [4]: 60%
- pest or weed control at 125 g/ha [5, 15]: 70%
- pest or weed control at 500 g/ha [5, 16]: 80%
- pest or weed control at 125 g/ha [5, 17]: 100%
- pest or weed control at 500 g/ha [5, 18]: 100%
- plant injury at 125 g/ha [6, 15]: 0%
- plant injury at 500 g/ha [6, 16]: 50%
- plant injury at 125 g/ha [6, 17]: 20%
- plant injury at 500 g/ha [6, 18]: 40%
- Corn plant response rating (crop injury, 0 = no effect, 100 = complete kill) at 125 g/ha (corn (Zea mays); [15]): 20%
- Corn plant response rating (crop injury, 0 = no effect, 100 = complete kill) at 500 g/ha (corn (Zea mays); [16]): 20%
- Corn plant response rating (crop injury, 0 = no effect, 100 = complete kill) at 125 g/ha (corn (Zea mays); [17]): 10%
- Corn plant response rating (crop injury, 0 = no effect, 100 = complete kill) at 500 g/ha (corn (Zea mays); [18]): 30%
- pest or weed control at 125 g/ha [7, 15]: 100%
- pest or weed control at 500 g/ha [7, 16]: 100%
- pest or weed control at 125 g/ha [7, 17]: 100%
- pest or weed control at 500 g/ha [7, 18]: 100%
- pest or weed control at 125 g/ha [8, 15]: 80%
- pest or weed control at 500 g/ha [8, 16]: 100%
- pest or weed control at 125 g/ha [8, 17]: 90%
- pest or weed control at 500 g/ha [8, 18]: 100%

Compound: FC(F)(F)c1cc(-c2ccccc2Oc2ncc(Cl)cn2)no1 [Compound 200, 5-chloro-2-[2-[5-(trifluoromethyl)-3-isoxazolyl]phenoxy]pyrimidine]
- Plant response rating (scale 0 to 100), Chickweed ([1]; 16 g ai/ha): 60
- pest or weed control at 31 g/ha [1, 9]: 95%
- pest or weed control at 62 g/ha [1, 10]: 100%
- pest or weed control at 125 g/ha [1, 10]: 100%
- Plant response rating (scale 0 to 100), Kochia (kochia (Kochia scoparia); 16 g ai/ha): 95
- pest or weed control at 31 g/ha (kochia (Kochia scoparia); [11]): 100%
- pest or weed control at 62 g/ha (kochia (Kochia scoparia); [12]): 100%
- pest or weed control at 125 g/ha (kochia (Kochia scoparia); [12]): 100%
- Plant response rating (scale 0 to 100), Oat, Wild (wild oat (Avena fatua); 16 g ai/ha): 20
- pest or weed control at 31 g/ha (wild oat (Avena fatua); [13]): 30%
- pest or weed control at 62 g/ha (wild oat (Avena fatua); Avena fatua, post-emergence, read-out: Oat, Wild plant response rating): 30%
- pest or weed control at 125 g/ha (wild oat (Avena fatua); [14]): 55%
- pest or weed control at 250 g/ha [2]: 100%
- pest or weed control at 250 g/ha [3]: 100%
- plant injury at 250 g/ha (rice (Oryza sativa)): 35%
- pest or weed control at 250 g/ha [4]: 90%
- Foxtail, Giant plant response rating [5, 19]: 100
- pest or weed control at 125 g/ha [5, 15]: 100%
- pest or weed control at 500 g/ha [5, 20]: 100%
- pest or weed control at 500 g/ha [5, 18]: 100%
- Wheat plant response rating [6, 19]: 20
- plant injury at 125 g/ha [6, 15]: 60%
- plant injury at 500 g/ha [6, 20]: 100%
- plant injury at 500 g/ha [6, 18]: 90%
- Corn plant response rating (corn (Zea mays); [19]): 20
- Corn plant response rating (crop injury, 0 = no effect, 100 = complete kill) at 125 g/ha (corn (Zea mays); [15]): 50%
- Corn plant response rating (crop injury, 0 = no effect, 100 = complete kill) at 500 g/ha (corn (Zea mays); [20]): 90%
- Corn plant response rating (crop injury, 0 = no effect, 100 = complete kill) at 500 g/ha (corn (Zea mays); [18]): 100%
- pest or weed control at 125 g/ha [7, 15]: 100%
- pest or weed control at 500 g/ha [7, 20]: 100%
- pest or weed control at 500 g/ha [7, 18]: 100%
- Pigweed plant response rating [7, 19]: 100
- pest or weed control at 125 g/ha [8, 15]: 90%
- pest or weed control at 500 g/ha [8, 20]: 100%
- pest or weed control at 500 g/ha [8, 18]: 100%
- Barnyardgrass plant response rating [8, 19]: 100
